Values of other authors as cited in paper PMC3057427 (ACS combinatorial science, 2011).

SMILES | efficacy in anti-Parkinsonian animal models
COc1cc(NC(=O)c2ccccn2)ccc1Cl [Compound 6] | display efficacy
O=C(Nc1cc(Cl)cc(Cl)c1)[C@H]1CCCC[C@H]1C(=O)O [Compound 2] | display efficacy
